Assay results: US10590121B2, “Kinase inhibitors and methods for making and using” (Rigel Pharmaceuticals, Inc., priority 2017, dated 2020)

How the values were obtained:
[1] = tested on: LPS induced IL-23 (p19/p40) in DC cells differentiated from human PBMC; assay: IL23-p19 ELISA, dendritic cells (DC differentiated from human PBMC), IFNγ primed, LPS stimulated; format: cell-based; conditions: human PBMC-derived dendritic cells, 1 μg/ml LPS, 18 hours, 10 pt
Method: Compound Screening Using DC Cells
1. Differentiation of PBMC's to DC Cells:
Human PBMC cells (400 million) obtained from the vendor were transferred into a T-175 flask containing 15 ml RPMI media (10% FBS) and incubate for 2 hours at 37° C. After 2 hours, the media including floating cells was aspirated out carefully and 12 ml of fresh RPMI media (10% FBS) containing GMCSF (100 ng/ml) and IL4 (20 ng/ml) was added, and the flask was kept in a 37° C. incubator for 7 days.
After 3 days, fresh GMCSF (100 ng/ml) and IL4 (20 ng/ml) were added to the flask and the incubation continued. After 7 days, the fully differentiated cells were harvested by spinning down (1200 rpm/5 min) and aspirating the media. The cells were suspended in fresh RPMI media (10% FBS) containing 50 ng/ml IFNγ (1000 U/ml) and then plated (50K/well in 100 μl) onto a white clear bottom 96 well plate and left in a 37° C. incubator for 24 hours.
2. Addition of Compounds:
After 24 hours incubation, 100 μl of RPMI media was added containing 2× concentrated test compound per well to the above cell-culture media (final concentration becomes 1×) and the plates were pre-incubated for 1 hour at 37° C. before stimulating with LPS.
After 1 hour compound pre-incubation, 10 μl per well of 20× concentrated LPS solution in RPMI media was added to give a final concentration of 1 μg/ml. The mixture was shaken and incubated the plates at 37° C. for an additional 18 hours.
155 μl of the supernatant was harvested from each well carefully (without the tip touching the bottom of the well) and to the remaining 50 μl/well of the cell culture plate was added 50 μl of Cell Titer Glo reagent. The mixture was incubated for 1-2 minutes on a shaker and the plate was read for luminescence intensity to determine the compound cytotoxicity. The cell culture supernatant collected above was used to carry out IL23 ELISA (65 μl-Supernatant) and IL10 ELISA (90 μl-Supernatant) as described below.
Human IL-23 (p19/p40) ELISA Protocol (e-Biosciences)
To 10.5 ml PBS add 50 μl of anti-IL23 (p19) was added capture antibody (2.5 μg/ml). The mixture was mixed well and 100 μl of the coating solution was added to each well of the 96 well white plates from Pierce. The wells were covered and incubated overnight at 4° C.
The anti-IL23 (p19)-antibody-coated plates were washed 2× using TBST (use plate washer) and blocked using 200 μl of 0.5% Casein for 1.5-2 hours at room temperature with shaking.
The plates were washed 2× using TBST and the supernatant was transferred (65 μl/well) to the above pre-blocked/IL23 (p19)-antibody-coated 96 well plate, and incubated at room temperature for 1.5 hours with shaking.
The plates were washed 4× using TBST (plate washer) and 100 μl/well detection antibody solution prepared from 2 μl of biotin labeled anti-IL-12 (p40/p70) antibody in 11 ml 1% BSA/PBS solution (1-5000 dilution) was added. The plates were incubated for 1 hour with shaking at room temperature.
Again, the plates were washed 4× with TBST and 100 μl of HRP labeled Streptavidin (R&D Systems) solution (10 μl/10 ml 1% BSA solution) was added, and the plates were incubated at room temperature for another 45 minutes with shaking.
After 45 minutes, the plates were washed with TBST 4× and 100 ul/well Super Signal ELISA Pico Chemiluminescent Substrate from Pierce (3.5 ml A+3.5 ml B+3.5 ml MQ water) was added. The plates were shaken for 1-2 minutes then read on a plate reader.

[2] = tested on: LPS induced IL23p19 in THP-1 cells; assay: LPS Induced IL23p19 in THP-1 Cells (with IFNγ Primed) Assay; format: cell-based; conditions: Homo sapiens; THP-1 cells primed with IFNγ 50 ng/mL, 1 μg/mL LPS, 18 hours, 10 pt; read-out: IL23-p19 ELISA, THP1-IFNy, LPS, 10 pt EC50
Source text: LPS Induced IL23p19 in THP-1 Cells (with IFNγ Primed) Assay
THP-1 Cells (ATCC, Cat # TIB-202), Dimethyl Sulfoxide (DMSO) (Sigma-Aldrich, Cat # D2650), RPMI 1640 (Cellgro, Cat #10-040-CM), Fetal Bovine Serum (Sigma, Cat # F4135), Albumin From Bovine Serum (BSA) (Sigma-Aldrich, Cat # A7906), LPS (Serotype K-235, Sigma, Product Number L 2143), IFNγ (Peprotech, Cat #300-02), Capture antibody: Human IL-23p19 ELISA (e-Bioscience, Cat. #14-7238-85), Detection antibody: Primary Mouse Biotinylated anti-human IL-12 (p40/p70) (e-Bioscience, Cat. #13-7129-85), Secondary HRP-conjugated Streptavidin (R&D Systems, Cat # DY998), 1×PBST Washing Buffer (PBS-Tween tablet) (VWR International, Cat #80058-558), ELISA Blocking Buffer (PBS with 1% BSA), ELISA Dilution Buffer (PBS with 1% BSA), 384 Well Flat-Bottom, MaxiSorp Black Immuno Plates (Thermo Scientific, Cat #12-565-346), 384 Well Flat-Bottom, White Tissue Culture Plates (Thermo Scientific, Cat #12-565-343), Super Signal ELISA Pico Chemiluminescent Substrate (Thermo Scientific, Cat #37070), Cell Titer Glo reagent (Promega, Cat # G7573), Positive control, IKK2VI inhibitor (Calbiochem, Cat #401483), AquaMax 4000 plate washer (Molecular Devices), Luminometer, Wallac Victor2 1420 Multilabel Counter.
On day 1, 50K/well THP-1 cells were seeded and primed with IFNγ (50 ng/mL) in 384-well plates for about 18 hours in RPMI media with 10% FBS. On day 2, the compound was serially diluted in DMSO from 5 mM in 3-fold dilutions, and then diluted 1:125 in RPMI media with 10% FBS. 50 μL/well 2× compound was added to 50 μL/well THP-1 cells (with IFNγ primed) in duplicate in 384 well tissue culture plates. The cells were pre-incubated with compound for 1 hour at 37° C., 5% CO2 before addition of 10 μL/well 11×LPS to give a final concentration of 1 μg/mL LPS. Day 3, after stimulation for 18 hours at 37° C., 5% CO2, the assay plate was centrifuged and 70 μL/well supernatant was harvested. IL-23p19 protein in 70 μL/well of supernatant was measured by sandwich ELISA, and 25 μl/well Cell Titer Glo reagent was added to the remaining cells to measure compound toxicity.
Human IL-23p19 Sandwich ELISA:
Maxisorp immuno ELISA plates were pre-coated with 25 μL/well of anti-IL-23p19 capture antibody (2.5 ug/mL) in PBS overnight at room temperature. After washing with 1×PBST, the plates were blocked using 100 μL/well of 1% BSA in PBS for 2 hours at room temperature. The plates were washed three times with 1×PBST and 70 μL/well supernatant were added. The plates were incubated at room temperature for 2 hours with shaking and washed three times with 1×PBST. 25 μL/well of biotin labeled anti-IL-12 (p40/p70) detection antibody (100 ng/mL) in PBS with 1% BSA was added and the plates were incubated at room temperature for 2 hours with shaking. After washing three times with 1×PBST, 25 μL/well of streptavidin-HRP (1:200) in PBS with 1% BSA was added and the plates were incubated at room temperature for 20 minutes with shaking. The plates were washed three times with 1×PBST and 25 μL/well of Super Signal ELISA Pico Chemiluminescent Substrate were added. The plates were read with a luminometer, and the chemiluminescence values were entered into Athena (Rigel) for curve fitting, EC50 calculation, and database storage.

SMILES	EC50 [1] [µM]	EC50 [2] [µM]
O=C(Nc1ccc(N2CCOCC2)cc1N1CCC(F)CC1)c1cccc(-c2cn[nH]c2)n1 [I-4, N-(2-(4-fluoropiperidin-1-yl)-4-morpholinophenyl)-6-(1H-pyrazol-4-yl)picolinamide]	3.6	0.314
O=C(Nc1ccc(N2CCOCC2)cc1N1CCCC1)c1csc(-c2cn[nH]c2)n1 [I-24, N-(4-morpholino-2-(pyrrolidin-1-yl)phenyl)-2-(1H-pyrazol-4-yl)thiazole-4-carboxamide]	0.794	0.836
O=C(Nc1cnc(N2CCOCC2)cc1N1CCCCC1)c1cccc(-c2cn[nH]c2)n1 [I-42, N-(6-morpholino-4-(piperidin-1-yl)pyridin-3-yl)-6-(1H-pyrazol-4-yl)picolinamide]	3.08	1.04
O=C(Nc1cc(OCCN2CCOCC2)ccc1N1CCCCC1)c1cccc(-c2cn[nH]c2)n1 [I-27, N-(5-(2-morpholinoethoxy)-2-(piperidin-1-yl)phenyl)-6-(1H-pyrazol-4-yl)picolinamide]	0.857	2.99
O=C(Nc1ccc(CC(=O)N2CCOCC2)cc1N1CCCCC1)c1cccc(-c2cn[nH]c2)n1 [I-51, N-(4-(2-morpholino-2-oxoethyl)-2-(piperidin-1-yl)phenyl)-6-(1H-pyrazol-4-yl)picolinamide]	0.154	0.0656
O=C(Nc1cnc(N2CCOCC2)cc1N1CCCCC1)c1csc(-c2cn[nH]c2)n1 [I-44, N-(6-morpholino-4-(piperidin-1-yl)pyridin-3-yl)-2-(1H-pyrazol-4-yl)thiazole-4-carboxamide]	0.229	0.222
O=C(Nc1cc(OCCN2CCOCC2)ccc1N1CCCCC1)c1ccc(-c2cn[nH]c2)o1 [I-28, N-(5-(2-morpholinoethoxy)-2-(piperidin-1-yl)phenyl)-5-(1H-pyrazol-4-yl)furan-2-carboxamide]	0.0638	0.189
O=C(Nc1ccc(C(=O)N2CCOCC2)cc1N1CCCCC1)c1cccc(-c2cn[nH]c2)n1 [I-45, N-(4-(morpholine-4-carbonyl)-2-(piperidin-1-yl)phenyl)-6-(1H-pyrazol-4-yl)picolinamide]	0.084	0.117
CN1CCN(c2ccc(NC(=O)c3ccc(-c4cn[nH]c4)o3)c(N3CCCCC3)c2)CC1 [I-2, N-(4-(4-methylpiperazin-1-yl)-2-(piperidin-1-yl)phenyl)-5-(1H-pyrazol-4-yl)furan-2-carboxamide]	0.12	0.0368
O=C(Nc1ccc(CC(=O)N2CCOCC2)cc1N1CCCCC1)c1ccc(-c2cn[nH]c2)o1 [I-52, N-(4-(2-morpholino-2-oxoethyl)-2-(piperidin-1-yl)phenyl)-5-(1H-pyrazol-4-yl)furan-2-carboxamide]	3.17	1.06
O=C(Nc1ccc(CCN2CCOCC2)cc1N1CCCCC1)c1cccc(-c2cn[nH]c2)n1 [I-54, N-(4-(2-morpholinoethyl)-2-(piperidin-1-yl)phenyl)-6-(1H-pyrazol-4-yl)picolinamide]	0.163	0.093
O=C(Nc1ccc(N2CCOCC2)cc1N1CCCC1)c1cccc(-c2cn[nH]c2)n1 [I-22, N-(4-morpholino-2-(pyrrolidin-1-yl)phenyl)-6-(1H-pyrazol-4-yl)picolinamide]	16.4	3.23
O=C(Nc1ccc(NCCN2CCOCC2)cc1N1CCCCC1)c1csc(-c2cn[nH]c2)n1 [I-74, N-(4-((2-morpholinoethyl)amino)-2-(piperidin-1-yl)phenyl)-2-(1H-pyrazol-4-yl)thiazole-4-carboxamide]	0.104	0.0514
CC1(O)CCN(c2cc(N3CCOCC3)ccc2NC(=O)c2csc(-c3cn[nH]c3)n2)CC1 [I-18, N-(2-(4-hydroxy-4-methylpiperidin-1-yl)-4-morpholinophenyl)-2-(1H-pyrazol-4-yl)thiazole-4-carboxamide]	0.105	0.0951
CN1CCN(c2ccc(NC(=O)c3ccc(-c4cn[nH]c4)o3)c(N3CCC(F)CC3)c2)CC1 [I-8, N-(2-(4-fluoropiperidin-1-yl)-4-(4-methylpiperazin-1-yl)phenyl)-5-(1H-pyrazol-4-yl)furan-2-carboxamide]	0.182	0.0637
O=C(Nc1ccc(C(=O)N2CCOCC2)cc1N1CCCCC1)c1csc(-c2cn[nH]c2)n1 [I-47, N-(4-(morpholine-4-carbonyl)-2-(piperidin-1-yl)phenyl)-2-(1H-pyrazol-4-yl)thiazole-4-carboxamide]	2.46	0.164
O=C(Nc1cc(OCCN2CCOCC2)ccc1N1CCCCC1)c1csc(-c2cn[nH]c2)n1 [I-29, N-(5-(2-morpholinoethoxy)-2-(piperidin-1-yl)phenyl)-2-(1H-pyrazol-4-yl)thiazole-4-carboxamide]	0.0512	0.105
